In patent publication US20060099712A1, “Correlation of anti-cancer activity of dyes with redox potentials” (Eastman Kodak Company, priority 2004, published 2006):
Read-outs that look alike come from different tables or passages of the source.

What was measured:
[1] = test system: CV-1 Normal Monkey Kidney Epithelial; assay: Clonogenic dye screening assay, CV-1 cells (IC50); format: cell-based, African green monkey; settings: for IC50: Primates; for CV (IC50 in the CV-1 cell line): 3 hrs treatment, unit from method b117-118
Description: CX-1 is a cancerous human colon adenocarcinoma cell line. CV-1 is a non-cancerous control, which is a kidney epithelial cell line from an African green monkey. IC50 is the dye concentration at which 50% of the cells are killed. Selectivity or kill ratio is defined as the ratio of […] at IC50 for both CX-1 and CV-1. A ratio with a high number indicates a high selectivity.
The dyes were screened in two cell lines. CX-1 is a human colon adenocarcinoma cell line. CV-1 is a kidney epithelial cell line from an African green monkey. CV-1 was used as a reference because no normal human epithelial cell line is available for clonogenic assay.
In the initial screen, dyes were examined at six different concentrations to generate a dose response curve. An IC50 value, the concentration at which 50% of the cells are killed, was then calculated. Initially, a dye concentration of 1.0 μg/mL was the highest examined for the CX-1 cell line and 0.005 μg/mL was the lower limit. The corresponding limits on the CV-1 cell line were […].
The screening procedure used a response curve that was determined from eight dye concentrations. The upper and lower limits of CX-1 were 0.32 and 0.0015 μg/mL, respectively, and the corresponding revised limits on CV-1 were 3.2 and 0.025 μg/mL. The screening results were reported by assigning an IC50 value to each dye for the CV-1 and CX-1 cell lines. These values will be referred to herein simply as CV and CX. The most desirable result would be to have a dye that was highly toxic to carcinoma cells but nontoxic to ‘normal’ cells. One measure of this type of selectivity is the ratio of the IC50's in the normal cell line to that in the carcinoma line, CV/CX.
Compounds are screened via an in vitro assay. CV-1 and CX-1 cells are seeded into separate assay plates. The plates are treated with varying concentrations of test compounds, rinsed, and colonies allowed to grow. IC50's are determined and drugs evaluated based on their selectivity and toxicity. Assay Steps: • I. Seeding Cells • II. Weighing • III. Preparation of Solution • IV. Treatment • V. Rinsing and Feeding • VI. Fixing • VII. IC50 Determination I. Seeding Cells
The cells should be seeded 16-30 hours before treatment. The media for CV-1 cells is DME+5% calf serum +5% Nuserum. The media for CX-1 cells is RPMI/DME (50/50)+5% calf serum +5% Nuserum.
(c) number of cells based on 2000 CX-1 cells/well and 1000 CV-1 cells/well. NOTE: Always make enough cell suspension for 1 extra plate to allow for volume loss during transfers.
• (a) For CV-1: 256 ug/ml-256 ul of 1 mg/ml stock +744 ul DMSO • (b) For CX-1: 25.6 ug/ml-100 ul of 256 ug/ml+900 ul DMSO IV. Treatment • 1. Each plate is treated with 4 test compounds, one positive control and one negative control. • 2. Serial dilutions of the compounds are made in the following way:
2 multi-well pipetters are used. One is set for 10 ul and one for 200 ul. Each is equipped with 6 tips spaced such that they fit into the 6 rows of a plate. 390 ul of media is added to the first column of each plate. 10 ul each of 4 compound solutions, a positive and a negative control are taken up and put into the first column of wells. The 200 ul pipetter is then placed in the same wells, pipetted up and down 3 times and two 200 ul aliquots are moved to the next column of wells. This column is pipetted up and down 3 times and 400 ul moved to column 3, etc. The final 400 ul excess from column 8 is discarded.
• 3. Label the plates along the front, each row −1 compound. • 4. Incubate the plates at 37° C. for 3 hrs. V. Rinsing • 1. Prepare several bottles of CX-1 and CV-1 media. • 2. Check for precipitate in first column of each plate and note. • 3. Starting with the plates treated first, rinse several plates at a time by aspirating the treatments and refilling each well with 0.5-1.0 ml of the rinse media. Aspirate and refill 2 more times for a total of 3 rinses. • 4.

[2] = test system: CX-1 Human Colon Carcinoma; assay: Clonogenic dye screening assay, CX-1 cells (IC50); format: cell-based; settings: for IC50: Homo sapiens; for CV/CX: selectivity ratio of IC50 values; for CV/CX (selectivity, kill ratio): ratio of IC50 in normal CV-1 line to IC50 in carcinoma CX-1 line; for CX (IC50 in the CX-1 cell line): 3 hrs treatment, unit from method b117-118
Summary of the method: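 Cells seeded 16-30 h ahead (2000 CX-1 or 1000 CV-1 per well), exposed to serially diluted dyes for 3 h at 37 °C, rinsed three times, then grown into colonies. Eight-point curves spanned 0.32-0.0015 μg/mL (CX-1) and 3.2-0.025 μg/mL (CV-1). IC50 is the concentration killing 50% of cells.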

[3] = CV-1, 3 hrs treatment, colonies after 7-10 days, unit from method, read-out: CV (IC50 in the CV-1 cell line)
[4] = CX-1, 3 hrs treatment, colonies after 7-10 days, unit from method, read-out: CX (IC50 in the CX-1 cell line)

IC50 [2, 4] [µg/mL]	SMILES	CV/CX (selectivity, kill ratio) [2]	IC50 [1, 3] [µg/mL]	CV (IC50 in the CV-1 cell line) ([1]; colonies after 7-10 days) [µg/mL]	further results
0.005	CCN1C=C(c2ccccc2)O/C1=C\C=C\c1sc2ccccc2[n+]1CC [Dye D-123]	80	0.4		IC50 ([1]; CV-1, Table XVI, unsymmetrical dyes, CV-1 cells, read-out: CV): 0.4 µg/mL; IC50 ([2]; CX-1, Table XVI, unsymmetrical dyes, CX-1 cells, read-out: CX): 0.005 µg/mL; CV/CX ([2]; Table XVI): 80.0
0.03	CC[n+]1c(/C=C/C=C2\SCCCN2C)sc2ccccc21 [Dye D-144]	100	3		
0.09	CCN1/C(=C/C=N/c2sc3ccccc3[n+]2CC)Sc2ccccc21 [Dye D-149]	77.8	7		

The next lines start with the compound.

SMILES	IC50 [2, 4] [µg/mL]	CV/CX (selectivity, kill ratio) [2]	IC50 [1, 3] [µg/mL]	CV (IC50 in the CV-1 cell line) ([1]; colonies after 7-10 days) [µg/mL]	further results
CC[n+]1c(/C=C/C=C2\[Te]c3ccccc3N2C)sc2ccccc21 [Dye D-152]		60			IC50 ([1]; CV-1, read-out: CV): 0.3 µg/mL; IC50 ([1]; CV-1, read-out: CV (IC50 in the CV-1 cell line)): 0.3 µg/mL; IC50 ([2]; CX-1, read-out: CX): < 0.005 µg/mL; IC50 ([2]; CX-1, read-out: CX (IC50 in the CX-1 cell line)): < 0.005 µg/mL; CV/CX ([2]; Table XVI): >60.0; CX ([2]; Table XVII, benzotellurazole derivatives, CX-1 cells): <0.005; CV/CX ([2]; Table XVII): >60.0
CC(=CC(C)=C1Sc2ccccc2N1C)c1sc2ccccc2[n+]1C [drawing 38|M|Me|H|Me]		2.5		0.5	CX (IC50 in the CX-1 cell line) ([2]; colonies after 7-10 days): 0.2 µg/mL
CCSC(=C\c1oc2ccccc2[n+]1C)/C=C1\Sc2ccccc2N1CC.[I-] [Dye D-127]		60		0.3	
CCN1/C(=C/C=C/c2oc3ccccc3[n+]2CC)Sc2cccc(-c3ccccc3)c21.[I-] [Dye D-106]		80		0.8	CX (IC50 in the CX-1 cell line) ([2]; colonies after 7-10 days): 0.01 µg/mL
CC[n+]1c(/C=C/C=C2\SC=C(C)N2C)oc2ccccc21 [Dye D-120]	0.01	500	5		
